Experimental findings from publication PMC5962729 (Frontiers in Pharmacology, 2018) are described below.

One may read the Tmax as the time at which the peak concentration occurs. In general, Cmax refers to the peak of the concentration-time curve.

Structures are written as SMILES. Like-named read-outs stand apart in the source and are kept apart here.

A short description of data set [1]: Pharmacokinetic study of YCHD components and phase II metabolites in normal rats (UHPLC-MS/MS, sulfatase enzymolysis). The class given is in vivo, rat. Conditions: for Tmax / Cmax / MRT inf / half-life / Vd/F / CL/F: rat; for MRT inf: read-out: MRT (0-∞) (converted); for half-life: read-out: t1/2z; for Vd/F: read-out: Vz/F; for CL/F: read-out: CLz/F. The procedure:
To explore the pharmacokinetic properties of YCHD following intragastric administration in rats, a rapid and sensitive method involving the use of UHPLC-MS/MS (Agilent 6460 series, Agilent Technologies, Santa Clara, CA, United States) was developed and validated for the simultaneous quantification of 10 active components of rat plasma. The quantification was conducted in ESI negative ionization mode, and the mass spectrometry conditions were as follows: capillary voltage, 3500 V; gas flow, 12 L/min; nebulizer, 40 psi; gas temperature, 350°C; and delta EMV (-), 400. A 5 μL extraction sample was injected into the column (Agilent SB-C18 column, 2.1 mm × 50 mm, 1.8 μm) and eluted at 0.4 mL/min with a gradient elution of water (with 0.4% v/v formic acid) (A) and acetonitrile (B) (0–3 min, 5–60% B; 3–5 min, 60–90% B; 5–5.1 min, 90–5% B; and re-equilibration for 3 min).
To each 50 μL plasma sample, 10 μL of internal standard solution (paeoniflorin, 1000 ng/mL) and 300 μL of a mixed solution of methanol and acetonitrile (v/v, 1:1; containing 1% formic acid) were added. Subsequently, the solution was vortex mixed for 5 min. After centrifugation at 15,000 rpm for 5 min, the supernatant was transferred completely into a tube, before being evaporated under N2 at 40°C. The residue was then dissolved in 50 μL of 50% methanol–water (v/v, 1:1) through vortexing for 5 min, after centrifugation at 15,000 rpm for 10 min. Finally, 5 μL of the supernatant sample was injected into the UHPLC-MS/MS system for analysis.
The rats were randomly divided into two groups (n = 5 for each group). […] After 24 h, the two groups of rats received a single oral dose of YCHD (12 g/kg). Blood was collected in heparinized tubes at 5, 15, 30, 45, 60, 120, 240, 360, 480, 720, and 1440 min after administration. The blood samples were centrifuged at 4000 rpm for 10 min, and the supernatant plasma was harvested. Plasma samples (50 μL) were immediately processed as outlined in Section “Chromatographic and Mass Spectrometry Conditions.”
Additional plasma samples (50 μL) were enzymatically hydrolyzed with 50 μL of enzyme solution (65.86 mg of sulfatase, dissolved in 2 mL of sodium acetate buffer, pH 5.0) for phase II metabolite quantification, in accordance with our previous study ([Ding et al., 2012]). After being vortex mixed for 5 min, the mixture was incubated at 37°C for 30 min and then returned to room temperature. Subsequently, the samples were processed as outlined in Section “Chromatographic and Mass Spectrometry Conditions” for UHPLC-MS/MS analysis. During routine analysis, each analytical run included six blank plasma samples, a set of calibration samples, a set of QC samples, and unknowns.
All data are presented as mean ± SD. A one-way analysis of variance was used to compare data between two groups using SPSS (Version 21.0). The differences were considered to be statistically significant when p < 0.05 and highly significant when p < 0.01 or p < 0.001. Pharmacokinetic data analysis was performed using DAS 2.1.1 software (Mathematical Pharmacology Professional Committee of China, Shanghai, China).
After sulfatase-aided enzymolysis, all the phase II metabolites could transform into their prototypes, including rhein, emodin, genipin, and capillarisin. The specific contents of the phase II metabolites of these components were detected indirectly by evaluating the content difference of their prototypes in samples after enzymolysis and before enzymolysis
CG = Ca −[MG × (CGG/MGG + CGe/MGe)]
Ca, CGG, and CGe represent the concentration of genipin, genipin-1-β-D-gentiobioside, and geniposide after enzymolysis of sulfatase, respectively. MG, MGG-, and MGe represent the mass of genipin, genipin-1-β-D-gentiobioside, and geniposide, respectively. The pharmacokinetic curves of phase II metabolites are illustrated in Figure 4B.

Data set [2] in a line: Identification of components and metabolites of YCHD in rat plasma, bile, urine and feces (UHPLC/Q-TOF-MS). The class given is in vivo. Conditions: rats, oral YCHD 12 g/kg, urine, feces. The procedure: After centrifuging at 4000 rpm for 10 min, supernatant plasma was harvested into heparinized tubes and then stored at -20°C for preservation. The rats in the second group (n = 6) were kept individually in metabolic cages to collect urine and feces. […] Subsequently, the rats were orally administered a single dose of YCHD (12 g/kg of body weight). […] For the third group of rats (n = 6), bile duct intubation was implemented, and blank bile samples were collected before administration. After the administration of YCHD at 12 g/kg of body weight, the drug-containing bile samples were collected.
Plasma, bile, and urine samples (200 μL each) were separately precipitated with six times of methanol–acetonitrile mixed solution (v/v, 1:1; containing 1% formic acid). After being vortex mixed for 5 min and centrifuged at 15,000 rpm for 5 min at 4°C, the supernatant was separated into another clean tube and dried under a gentle stream of nitrogen at 45°C. Subsequently, the residue was reconstituted in 100 μL of 50% methanol–water (v/v) and then vortex mixed for 10 min. After another round of centrifugation at 15,000 rpm for 5 min at 4°C, 5 μL of the supernatant was analyzed by UHPLC-MS/MS. A 0.5 g sample of naturally dried feces was supplemented with 2 mL of 80% methanol–water (v/v) and then ultrasonically extracted for 30 min at 4°C. After being centrifuged at 15,000 rpm for 10 min, the supernatant was dried under a gentle stream of nitrogen at 45°C. Finally, the residue was reconstituted in 1 mL of 50% methanol–water (v/v) and then vortex mixed for 10 min. After another round of centrifugation at 15,000 rpm for 5 min at 4°C, 5 μL of the supernatant sample was injected into the UHPLC-MS/MS system for analysis.
Separations were conducted on an Agilent SB-C18 column (2.1 mm × 50 mm, 1.8 μm) of a UHPLC/Q-TOF-MS system (Waters, Corp., Milford, MA, United States) maintained at 40°C.
A Synapt G2 quadrupole time-of-flight (Q/TOF) MS/MS system (Waters, Corp., Manchester, United Kingdom) equipped with an electrospray ionization (ESI) interface was operated in negative ionization mode and controlled by MassLynx software (Version 4.1). The optimized conditions for maximum detection of metabolites were as follows: the capillary voltage was set at 3.0 kV, extraction cone voltage was set at 10 and 15 V, source temperature was maintained at 120°C, and desolvation temperature was maintained at 450°C. […] An MS^E approach using a dynamic ramp of collision energy was also applied at two (low and high collision energies) scan functions. The following parameters were set: Function 1 (low energy)—mass scan range, 100–1000; scan time, 0.25 s; interscan delay, 0.05 s; collision energy, 4 V. Function 2 (high energy)—mass scan range, 100–1000; scan time, 0.2 s; interscan delay, 0.05 s; collision energy ramp, 10–30 V. Data were acquired using Masslynx^TM (Version 4.1. Waters, Crop., Milford, MA, United States), and Metabolynx^TM (Waters, Crop., Milford, MA, United States) was applied for post-acquisition data processing.

[3] abbreviates: Control group (normal rats), single oral YCHD 12 g/kg, plasma.
The mark [4] stands for this setting: Sprague Dawley, plasma, po, 12 g/kg, in normal and cholestatic rats after oral administration of YCHD.
The mark [5] stands for this setting: plasma, po, 12 g/kg, Control group (normal rats), single oral YCHD 12 g/kg, plasma.
The mark [6] stands for this setting: Sprague Dawley, Control group (normal rats), single oral YCHD 12 g/kg, plasma.
Setting [7] is: in vivo, Control group (normal rats), single oral YCHD 12 g/kg, plasma.
The mark [8] stands for this setting: Sprague Dawley, in vivo, Control group (normal rats), single oral YCHD 12 g/kg, plasma.

Consider `CC(=O)c1ccc(O)cc1` [4-hydroxyacetophenone, 4-Hydroxyacetophenone], for which, in data set [1] (setting [3]), the “AUC(0-∞)” value came to 192358.2 ± 102858.3 µg·min/L, the Ka amounted to 406.1 ± 333.9 min⁻¹, the Cmax stood at 1580 ± 133 ng/mL and the MRT inf was 4.82 h. Further, the half-life in data set [1] (setting [3]) amounted to 13.8 ± 13.6 h. Also, the Tmax in data set [1] (setting [4]) is at most 0.45 h. The Tmax in data set [1] (setting [5]) is 0.25 h. In addition, the “Source (biological samples in which the compound was identified)” value in data set [2] is recorded as “Plasma, bile, urine, feces”.

`O=C(O)C1=CO[C@@H](O[C@@H]2O[C@H](CO)[C@@H](O)[C@H](O)[C@H]2O)[C@@H]2C(CO)=CC[C@H]12` [Geniposidic acid]: in data set [1] (setting [3]), the “AUC(0-∞)” value was found to be 1374849.8 ± 734718.1 µg·min/L, the Ka was determined as 11255.3 ± 11024.4 min⁻¹, the Cmax turned out to be 449 ± 34.2 ng/mL and the CL/F was 30 ± 4 mL/min/kg. The MRT inf in data set [1] (setting [3]) is 5.93 h. In data set [1] (setting [6]), the Vd/F came out at 8.6 ± 3.2 L/kg and the half-life turned out to be 3.23 ± 0.755 h. In data set [1] (setting [7]), the time of peak concentration (Tmax) was 4.4 h. Moreover, the “Source (biological samples in which the compound was identified)” value in data set [2] is given as “Plasma, urine, feces”.

For `O=C(O)c1cc(O)c2c(c1)C(=O)c1cccc(O)c1C2=O` [Rhein], in data set [1] (setting [3]), the “AUC(0-∞)” value turned out to be 874792.3 ± 503744.0 µg·min/L, the Ka came to 4443.6 ± 454.1 min⁻¹, the Cmax was 3040 ± 397 ng/mL and the CL/F came out at 41 ± 6 mL/min/kg. In data set [1] (setting [3]), the MRT inf is 2.01 h, the Vd/F came out at 3.79 ± 0.53 L/kg and the half-life amounted to 1.06 ± 0.00833 h. Moreover, the Tmax in data set [1] (setting [4]) was at most 0.45 h. In addition, in data set [1] (setting [5]), the Tmax is 0.25 h. Moreover, the “Source (biological samples in which the compound was identified)” value in data set [2] was “Plasma, bile, urine, feces”.

Consider `COC(=O)C1=CO[C@@H](O[C@@H]2O[C@H](CO)[C@@H](O)[C@H](O)[C@H]2O)[C@@H]2C(CO)=CC[C@H]12` [Geniposide], for which, in data set [1] (setting [3]), the “AUC(0-∞)” value was found to be 384279.8 ± 184237.0 µg·min/L and the Ka came to 702.9 ± 413.6 min⁻¹. Besides, the Tmax in data set [1] (Sprague Dawley, in vivo, 12 g/kg, in normal and cholestatic rats after oral administration of YCHD) was at most 0.45 h. Also, in data set [1] (setting [7]), the Cmax worked out at 524 ± 59.4 ng/mL, the Tmax is 0.3 h, the CL/F was determined as 122 ± 22 mL/min/kg and the MRT inf is 3.36 h. In data set [1] (setting [7]), the Vd/F amounted to 21.1 ± 12 L/kg and the half-life amounted to 1.9 ± 0.765 h. In addition, the “Source (biological samples in which the compound was identified)” value in data set [2] is given as “Plasma, bile, urine, feces”.

In the case of `COC(=O)C1=CO[C@@H](O[C@@H]2O[C@H](CO[C@@H]3O[C@H](CO)[C@@H](O)[C@H](O)[C@H]3O)[C@@H](O)[C@H](O)[C@H]2O)[C@@H]2C(CO)=CC[C@H]12` [genipin-1-β-D-gentiobiodide, Genipin-1-β-D-gentiobiodide], in data set [1] (setting [3]), the “AUC(0-∞)” value amounted to 38557.0 ± 20175.1 µg·min/L, the Ka was found to be 95.5 ± 16.2 min⁻¹, the Cmax is 106 ± 3.9 ng/mL and the CL/F is 1040 ± 56 mL/min/kg. In data set [1] (setting [3]), the MRT inf was 2.13 h. Also, the Tmax in data set [1] (setting [4]) was at most 0.45 h. Moreover, in data set [1] (setting [6]), the Vd/F worked out at 170 ± 52.3 L/kg and the half-life came to 1.93 ± 0.538 h. For the same molecule, in data set [1] (setting [5]), the time to peak (Tmax) is 0.35 h. Also, the “Source (biological samples in which the compound was identified)” value in data set [2] is recorded as “Bile, urine”.

As to `COC(=O)C1=COC(OC2OC(CO)C(O)C(O)C2O)C2C(CO)=CC(O)C12` (centres unmarked) [Scandoside methyl ester], in data set [1] (setting [3]), the “AUC(0-∞)” value came out at 233687.2 ± 127559.1 µg·min/L and the Ka worked out at 477.5 ± 133.9 min⁻¹. For the same molecule, in data set [1] (setting [8]), the Cmax came to 127 ± 8.9 ng/mL, the Tmax is 0.35 h, the CL/F is 184 ± 33 mL/min/kg and the MRT inf is 6.08 h. Also, in data set [1] (setting [7]), the Vd/F amounted to 62 ± 30.8 L/kg and the half-life worked out at 3.82 ± 1.76 h. For the same molecule, in data set [2], the “Source (biological samples in which the compound was identified)” value was “Plasma, bile, urine, feces”.
